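Values below derive from 48-hour exposures of cells grown in 96-well plates, with endpoints linearly interpolated between the two concentrations bracketing the appropriate inhibition level. At the GI50, growth is halved. TGI: concentration producing complete growth inhibition.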 Where only a bound is given, the exact number is not on record here.

Some test systems named below: EKVX NSCLC; HT29 colon; LOX IMVI melanoma; MALME-3M melanoma; OVCAR-8 ovarian; RPMI-8226 leukemia; SF-539 CNS; SN12C renal; UACC-257 melanoma; HOP-92 NSCLC.
Experiment in all cases: growth of human tumour cells (NCI), 48 h

Consider `CCOP1(=O)C=C(C)C(=C(Cl)Cl)C(C)=C1` (stereo not given), for which the TGI is 38.3 µM in the test on EKVX NSCLC; 84.1 µM in the test with HT29 colon; greater than 100 µM in the test on LOX IMVI melanoma; 47.3 µM with MALME-3M melanoma; greater than 100 µM with OVCAR-8 ovarian; 28.4 µM in the test with RPMI-8226 leukemia. For the same compound, the values for the TGI in the test with SF-539 CNS, in the test on SN12C renal and in the test on UACC-257 melanoma were 66.7 µM, greater than 100 µM and 89 µM, respectively. The GI50 was 6.6 µM in the test on HT29 colon, 22.8 µM in the test on LOX IMVI melanoma and 11.5 µM in the test on UACC-257 melanoma.
`O=C(O)Cc1cccc2c(=O)c3cccc([N+](=O)[O-])c3oc12`: the TGI in the test on EKVX NSCLC, in the test on HT29 colon, with LOX IMVI melanoma, in the test on MALME-3M melanoma, with OVCAR-8 ovarian and in the test on RPMI-8226 leukemia was greater than 100 µM each time. Also, the TGI with SF-539 CNS, with SN12C renal and with UACC-257 melanoma was greater than 100 µM each time.
As for `CC(C)C1N2CCCCC2[C@@H]2c3[nH]c4ccccc4c3CCN12` (stereo not given in full), the TGI with EKVX NSCLC, in the test on HOP-92 NSCLC, with HT29 colon, in the test on OVCAR-8 ovarian, in the test with RPMI-8226 leukemia and in the test on SF-539 CNS was greater than 100 µM each time. The TGI in the test on SN12C renal and with UACC-257 melanoma was greater than 100 µM each time.
Take `Fc1ccc(Nc2nc3ccccc3c3occc23)cc1`: the GI50 is 15.2 µM in the test on EKVX NSCLC; 5.8 µM with HOP-92 NSCLC; 3.41 µM in the test with LOX IMVI melanoma; 11.2 µM in the test on OVCAR-8 ovarian; 3.56 µM in the test on RPMI-8226 leukemia; 19.3 µM with SF-539 CNS. Besides, the figures for the GI50 in the test with SN12C renal and in the test with UACC-257 melanoma were 12.9 µM and 13.8 µM, respectively. Also, the TGI turned out to be 29.5 µM with EKVX NSCLC; 19.4 µM in the test with HOP-92 NSCLC; 17.9 µM in the test on LOX IMVI melanoma; 31.5 µM in the test with OVCAR-8 ovarian; 15 µM in the test on RPMI-8226 leukemia; 33.7 µM in the test with SF-539 CNS. Besides, the TGI in the test on SN12C renal came out at 27.2 µM; in the test on UACC-257 melanoma it was 28.3 µM.
On to `COC1=CC(=O)c2nc(Cl)ccc2C1=O`, for which the GI50 in the test on EKVX NSCLC is 1.78 µM; in the test on HT29 colon, 2.21 µM; in the test with LOX IMVI melanoma, 1.38 µM; in the test with MALME-3M melanoma it was 1.72 µM; in the test on OVCAR-8 ovarian, 1.68 µM; in the test with RPMI-8226 leukemia, 2.59 µM. Besides, the GI50 with SF-539 CNS is 1.62 µM; in the test on SN12C renal it was 1.72 µM; with UACC-257 melanoma, 1.68 µM. Also, the TGI worked out at 3.53 µM in the test with EKVX NSCLC; 4.74 µM in the test with HT29 colon; 2.8 µM with LOX IMVI melanoma; 3.38 µM in the test with MALME-3M melanoma; 3.11 µM in the test with OVCAR-8 ovarian; 7.9 µM with RPMI-8226 leukemia. The TGI in the test with SF-539 CNS is 3.03 µM; in the test on SN12C renal it was 3.19 µM; in the test with UACC-257 melanoma, 3.12 µM.
In the case of `CCCCCC[C@H](C)NC(=O)c1ccc(Nc2nc3ccccc3c3occc23)cc1`, the GI50 is 2.2 µM with EKVX NSCLC; 3 µM in the test with HOP-92 NSCLC; 2.53 µM in the test on HT29 colon; 11.4 µM with LOX IMVI melanoma; 2.92 µM with OVCAR-8 ovarian; 4.03 µM in the test with RPMI-8226 leukemia. The GI50 with SF-539 CNS is 2.48 µM; in the test on SN12C renal, 24.5 µM; with UACC-257 melanoma, 2.64 µM. Besides, the TGI was 5.42 µM in the test on EKVX NSCLC; 50.4 µM in the test on HOP-92 NSCLC; greater than 100 µM in the test on HT29 colon; 24.3 µM in the test with LOX IMVI melanoma; 8 µM in the test on OVCAR-8 ovarian; greater than 100 µM in the test on RPMI-8226 leukemia. The TGI in the test on SF-539 CNS worked out at 5.31 µM; in the test with SN12C renal it was 97.3 µM; with UACC-257 melanoma it was 6.17 µM.
On to `CC1C2CC=CC(=O)[C@@]2(C)CCC12OCCO2` (stereo not given in full), for which the TGI in the test on EKVX NSCLC, in the test with HOP-92 NSCLC, with HT29 colon, in the test on MALME-3M melanoma, in the test with OVCAR-8 ovarian and in the test with SF-539 CNS was greater than 100 µM throughout. Besides, the TGI in the test with SN12C renal and in the test on UACC-257 melanoma was greater than 100 µM each time.
Turning to `C/C(=N/Nc1nc(C)cc(=O)[nH]1)C(=O)O`, the TGI with EKVX NSCLC, with HT29 colon, in the test on LOX IMVI melanoma, in the test with MALME-3M melanoma, in the test with OVCAR-8 ovarian and with RPMI-8226 leukemia was greater than 100 µM throughout. For the same compound, the TGI in the test with SN12C renal and in the test with UACC-257 melanoma was greater than 100 µM each time.
For the compound `CCCCCCCC(=O)[O][Hg][CH2]C1COC([CH2][Hg][O]C(=O)CCCCCCC)CO1` (stereo not given), the GI50 was 30.8 µM in the test with EKVX NSCLC; 5.85 µM in the test on HOP-92 NSCLC; 15.6 µM in the test with HT29 colon; 3.24 µM in the test with MALME-3M melanoma; 19.8 µM in the test with OVCAR-8 ovarian; 3.84 µM in the test with RPMI-8226 leukemia. Moreover, the GI50 is 17.5 µM in the test on SF-539 CNS and 15.7 µM with SN12C renal. Besides, the TGI in the test on EKVX NSCLC is 66.4 µM; in the test on HOP-92 NSCLC it was 17.1 µM; with HT29 colon, 34.3 µM; with MALME-3M melanoma, 11.6 µM; in the test on OVCAR-8 ovarian, 40.1 µM; with RPMI-8226 leukemia it was greater than 100 µM. Besides, the values for the TGI in the test with SF-539 CNS and in the test with SN12C renal were 37.4 µM and 30.5 µM, respectively.
As for `CC1CC[P+](c2ccccc2)(c2ccccc2)CC1`, the TGI with EKVX NSCLC, in the test with HT29 colon, with LOX IMVI melanoma, in the test on MALME-3M melanoma, in the test on OVCAR-8 ovarian and in the test on RPMI-8226 leukemia was greater than 100 µM throughout. Moreover, the TGI in the test on SF-539 CNS, in the test on SN12C renal and in the test with UACC-257 melanoma was greater than 100 µM each time.
On to `CSc1ccc(C(=O)/C=C/c2ccccc2Cl)cc1`, for which the GI50 was 19.7 µM in the test with EKVX NSCLC; 15.5 µM in the test on HOP-92 NSCLC; 21.2 µM with HT29 colon; 6.08 µM in the test on LOX IMVI melanoma; 15.8 µM with OVCAR-8 ovarian; 7.11 µM in the test with RPMI-8226 leukemia. Further, the GI50 in the test with SF-539 CNS is 16.5 µM; in the test with SN12C renal it was 17.3 µM; in the test with UACC-257 melanoma it was 15.2 µM. The TGI with EKVX NSCLC is 37 µM; in the test on HOP-92 NSCLC it was 32 µM; in the test with HT29 colon, greater than 100 µM; in the test with LOX IMVI melanoma, 19.2 µM; in the test on OVCAR-8 ovarian it was 32.5 µM; with RPMI-8226 leukemia, 37.7 µM. Also, the results for the TGI in the test on SF-539 CNS, in the test on SN12C renal and in the test with UACC-257 melanoma were 33.1 µM, 32.7 µM and 29.3 µM, respectively.

For the origin of these results see PubChem BioAssay (NCI).
